Values joined by “and” are separate entries in the source; they are usually repeats but may differ in a detail not shown here. Identical values can stand only once.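 Step 1: Grow cells in 96-well plates. Step 2: Expose to compound for 48 hours at 5 concentrations. Step 3: Interpolate endpoints linearly; if unreached, use highest concentration. At the GI50, growth is halved. TGI denotes the concentration required for complete inhibition of growth.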
What was measured:
Experiment in all cases: NCI anticancer screen, dose series, 48 h
[1] = tested on: 786-0 renal
[2] = tested on: HS 578T breast
[3] = tested on: K-562 leukemia
[4] = tested on: KM12 colon
[5] = tested on: PC-3 prostate
[6] = tested on: SF-268 CNS
[7] = tested on: SNB-75 CNS
[8] = tested on: SW-620 colon
[9] = tested on: NCI-H226 lung

Compound	TGI [1] [µM]	TGI [2] [µM]	TGI [3] [µM]	TGI [4] [µM]	TGI [5] [µM]	TGI [6] [µM]	TGI [7] [µM]	TGI [8] [µM]	TGI [9] [µM]	GI50 [3]	GI50 [7] [µM]	GI50 [2] [µM]	GI50 [4] [µM]	GI50 [9] [µM]	GI50 [5] [µM]	GI50 [6] [µM]	GI50 [8] [µM]
CSc1ccc(/C=C2\N=C(c3ccccc3)N(/N=C/c3cc4cc(C)ccc4nc3Cl)C2=O)cc1	35.1	65.9	57.2	33.8	38	47.6	49.2	> 100	–	–	–	–	–	–	–	–	–
CC(=O)/C(=C\c1ccc(Cl)c(Cl)c1)C(=O)C(C)CN(C)C (configuration not stated)	8.96	–	–	5.35	17	23.4	–	9.01	14.9	–	–	–	–	–	–	–	–
NCCOCC(N)C(=O)O (configuration not stated)	> 100	> 100	> 100	> 100	> 100	> 100	> 100	> 100	> 100	–	–	–	–	–	–	–	–
NC1=NCC(CN2CCCC2)O1 (configuration not stated)	> 100	> 100	> 100	> 100	> 100	> 100	> 100	> 100	–	–	–	–	–	–	–	–	–
C/C(Nc1ccc(Cl)cc1Cl)=C1/CCOC1=O	> 100	73.8	> 100	> 100	> 100	92.8	66.1	> 100	> 100	–	–	–	–	–	–	–	–
CCOP(=O)(OCC)C(C)(CC)NC(=O)C(C(F)(F)F)C(F)(F)F (configuration not stated)	> 100	> 100	> 100	> 100	> 100	> 100	> 100	> 100	> 100	18.6 µM and 39.1 µM	> 71.6	–	–	–	–	–	–
CC(C)C1(O)C(=O)N(c2c(F)c(F)c(F)c(F)c2F)C(=S)N1CCSc1ccccc1 (configuration not stated)	33.3	39.7	26.7	31.5	29.2	33.2	31.1	30.3	38.7	–	–	–	–	–	–	–	–
NC(=O)CO/N=C1/C(c2c(O)[nH]c3ccccc23)=Nc2ccccc21	> 100	> 100	> 100	> 100	> 100	> 100	> 100	> 100	> 100	–	–	–	–	–	–	–	–
O=c1cc(NCc2ccncc2)[nH]c(=O)[nH]1	> 100	> 100	> 100	> 100	> 100	> 100	> 100	> 100	> 100	–	–	–	–	–	–	–	–
CCOC(=O)C1(C(F)(F)F)N=C(CC)OC(N2CCOCC2)=N1 (configuration not stated)	–	> 100	> 100	> 100	> 100	> 100	> 100	> 100	–	–	–	–	–	–	–	–	–
CC1CC/C(=C\c2ccc(Cl)cc2)c2nc(N)c(C#N)c(-c3ccc(Cl)cc3)c21 (configuration not stated)	> 100	–	> 100	> 100	> 100	–	> 100	> 100	> 100	–	–	–	–	–	–	–	–
COc1ccc(CCN2CCc3c(C)c(C#N)c4nc5ccccc5n4c32)cc1OC	> 100	60.6	55.7	–	> 100	> 100	88.7	97.3	93.7	–	–	–	–	–	–	–	–
C=CC1CN2CCC1CC2C(O)c1ccnc2ccccc12 (configuration not stated)	> 100	–	> 100	> 100	> 100	> 100	> 100	> 100	> 100	> 100 µM	> 100	–	–	–	–	–	–
CN(C)c1ccc(/C=C2\N=C(c3ccccc3)N(c3ccc4c(c3)Sc3cc(N5C(=O)/C(=C/c6ccc(N(C)C)cc6)N=C5c5ccccc5)ccc3N4)C2=O)cc1	45.6	72.7	96.4	> 100	34.4	37.3	27.4	> 100	–	–	–	–	–	–	–	–	–
CCOC(=O)c1cn(C)c(=S)n2c1nc1ccccc12	> 100	–	> 100	> 100	> 100	–	> 100	> 100	> 100	–	–	–	–	–	–	–	–
Cc1ccc(S(=O)(=O)n2cc(C#N)c(C#N)c2)cc1	> 100	61.4	> 100	> 100	85	69.2	> 100	80	–	–	–	–	–	–	–	–	–
COC(=O)c1c(C)nc(C)c(NO)c1-c1ccccc1C(F)(F)F	30.2	> 100	> 100	> 100	> 100	> 100	–	30.2	76.7	–	–	–	–	–	–	–	–
CO[C@]1(CN2CCN3CCCC[C@@H]3C2)/C=C/C[C@H](C)[C@@H](C)S(=O)(=O)NC(=O)c2ccc3c(c2)N(C[C@@H]2CC[C@H]21)C[C@@]1(CCCc2cc(Cl)ccc21)CO3	–	3.57	6.57	3.25	–	–	2.04	–	–	2.28 µM	0.371	1.18	1.73	–	–	–	–
CCOP(=O)(OCC)/C(C#N)=C/c1cccn1Cc1ccccc1	> 100	–	> 100	78.3	> 100	> 100	> 100	75.2	51.8	–	–	–	–	–	–	–	–
O=C(Nc1cccc(-n2cc(-c3ccncc3)c(-c3ccc(O)c(Cl)c3)n2)c1)c1cccc(C(F)(F)F)c1	–	> 100	> 100	64.3	> 100	> 100	> 100	> 100	> 100	2.41 µM	2.07	2.26	2.67	7.17	3.62	7.11	5.81
CN(C)C(=S)Oc1ccc2ccc(=O)oc2c1	> 100	> 100	–	> 100	> 100	> 100	> 100	> 100	> 100	–	–	–	–	–	–	–	–
C/C(=N\Nc1nc2ccccc2[nH]1)c1cc2ccccc2cn1	0.743	1.74	> 100	1.88	–	1.02	1.56	1.65	1.69	–	–	–	–	–	–	–	–
COC(=O)[C@@H]1CN(C(=O)c2ccccc2)C(=O)N1C(=O)OCc1ccccc1	> 100	> 100	> 100	> 100	–	> 100	> 100	> 100	> 100	–	–	–	–	–	–	–	–

From PubChem BioAssay (NCI)
